Test results taken from US20170325459A1, “BICYCLIC COMPOUNDS AS PEST CONTROL AGENTS” (Bayer CropScience Aktiengesellschaft, priority 2014, published 2017).

What was measured:
[1] = test system: Myzus persicae; assay: Myzus persicae spray test; type: in vivo; conditions: application rate 500 g/ha, Chinese cabbage leaf discs, after 6 days; for pest or weed control at 500 g/ha: Myzus persicae, foliar, 144 h, read-out: efficacy (aphids killed)
Description: Myzus persicae—Spray Test Solvent: 78 parts by weight of acetone • • 1.5 parts by weight of dimethylformamide Emulsifier: alkylaryl polyglycol ether To produce a suitable active ingredient formulation, 1 part by weight of active ingredient is dissolved using the specified parts by weight of solvent and made up with water containing an emulsifier concentration of 1000 ppm until the desired concentration is attained. To produce further test concentrations, the formulation is diluted with emulsifier-containing water. Discs of Chinese cabbage leaves (Brassica pekinensis) infested by all stages of the green peach aphid (Myzus persicae) are sprayed with an active ingredient formulation of the desired concentration. After 6 days, the efficacy in % is determined. 100% means that all the aphids have been killed and 0% means that none of the aphids have been killed.

[2] = test system: Tetranychus urticae; assay: Tetranychus urticae spray test, OP-resistant; type: in vivo; conditions: application rate 500 g/ha, bean leaf discs, after 6 days
Description: Tetranychus urticae—Spray Test, OP-Resistant
(§1) Solvent: 78.0 parts by weight of acetone • • 1.5 parts by weight of dimethylformamide
(§2) Emulsifier: alkylaryl polyglycol ether
(§3) To produce a suitable active ingredient formulation, 1 part by weight of active ingredient is dissolved using the specified parts by weight of solvent and made up with water containing an emulsifier concentration of 1000 ppm until the desired concentration is attained. To produce further test concentrations, the formulation is diluted with emulsifier-containing water.
Discs of bean leaves (Phaseolus vulgaris) infested with all stages of the greenhouse red spider mite (Tetranychus urticae) are sprayed with an active ingredient formulation of the desired concentration.
After 6 days, the efficacy in % is determined. 100% meant that all the spider mites have been killed and 0% means that no spider mites have been killed.

[3] = log P by HPLC (OECD Guideline 117), method [a] acidic range pH 2.7; type: physicochemical; conditions: for chromatographic logP: reversed-phase (RP) C18 HPLC column
Description: (§4) The log P values were determined in accordance with OECD Guideline 117 (EC Directive 92/69/EEC) by HPLC (high-performance liquid chromatography) using reversed-phase (RP) columns (C18), by the following methods: [a] The LC-MS determination in the acidic range is carried out at pH 2.7 with 0.1% aqueous formic acid and acetonitrile (contains 0.1% formic acid) as eluents; linear gradient from 10% acetonitrile to 95% acetonitrile. [b] LC-MS determination in the neutral range is effected at pH 7.8 with 0.001 molar aqueous ammonium hydrogencarbonate solution and acetonitrile as eluents; linear gradient from 10% acetonitrile to 95% acetonitrile. Calibration is effected using unbranched alkan-2-ones (having 3 to 16 carbon atoms) with known log P values (log P values determined on the basis of the retention times by linear interpolation between two successive alkanones).

[4] = log P by HPLC (OECD Guideline 117), method [b] neutral range pH 7.8; type: physicochemical; conditions: for chromatographic logP: reversed-phase (RP) C18 HPLC column
Description: as §4

[5] = test system: Boophilus microplus; assay: Boophilus microplus injection test; type: in vivo; conditions: application rate 20 μg/animal, injection into engorged adult female cattle ticks, assessed after 7 days
Description: Boophilus microplus—Injection Test Solvent: dimethyl sulphoxide To produce a suitable active ingredient formulation, 10 mg of active ingredient are mixed with 0.5 ml of solvent and the concentrate is diluted to the desired concentration with solvent. 1 μl of the active ingredient solution is injected into the abdomen of 5 engorged adult female cattle ticks (Boophilus microplus). The animals are transferred into dishes and kept in a climate-controlled room. Efficacy is assessed after 7 days by laying of fertile eggs. Eggs which are not visibly fertile are stored in a climate-controlled cabinet until the larvae hatch after about 42 days. An efficacy of 100% means that none of the ticks has laid any fertile eggs; 0% means that all the eggs are fertile.

[6] = test system: Phaedon cochleariae; assay: Phaedon cochleariae spray test; type: in vivo; conditions: application rate 500 g/ha, Chinese cabbage leaf discs, after 7 days
Description: Phaedon cochleariae—Spray Test
as §1, §2, §3
After 7 days, the efficacy in % is determined. 100% means that all the beetle larvae have been killed and 0% means that none of the beetle larvae have been killed.

SMILES	logP[a] [3]	logP[b] [4]	chromatographic logP [4]	chromatographic logP [3]	efficacy (aphids killed) [1] [%]	pest or weed control at 500 g/ha [1] [%]	also measured
Cc1ccccc1-c1ccc2nc(-c3cccnc3)sc2c1 [compound 2]	4.08	4.24			100		efficacy (spider mites killed) [2]: 90%
c1cncc(-c2nc3ccc(-n4ccnc4)cc3s2)c1 [compound 25, 6-(1H-Imidazol-1-yl)-2-(pyridin-3-yl)-1,3-benzothiazole]			1.64			90	efficacy (laying of fertile eggs) [5]: 80%
Cc1nn(-c2ccc3nc(-c4cccnc4)sc3c2)c(=S)n1C [compound 49]	1.41	1.58			90		
CSc1nn(-c2ccc3nc(-c4cccnc4)sc3c2)c(=O)n1C [compound 51]	2.43	2.56			100		
Clc1cccc(-c2ccc3nc(-c4cccnc4)sc3c2)c1 [compound 7]			4.49	4.32		100	efficacy (beetle larvae killed) [6]: 83%
Cc1cc(F)c(-c2ccc3nc(-c4cccnc4)sc3c2)cc1[S+]([O-])CC(F)(F)F (centres unmarked) [compound 12, 6-{2-Fluoro-4-methyl-5-[(2,2,2-trifluoroethyl)sulphinyl]phenyl}-2-(pyridin-3-yl)-1,3-benzothiazole]			3.33	3.33		90	
FC(F)(F)c1ccn(-c2ccc3nc(-c4cccnc4)sc3c2)n1 [compound 28, 2-(Pyridin-3-yl)-6-[3-(trifluoromethyl)-1H-pyrazol-1-yl]-1,3-benzothiazole]			3.46			100	efficacy (laying of fertile eggs) [5]: 80%
Cc1ccc(-c2ccc3nc(-c4cccnc4)sc3c2)cc1 [compound 4]	4.25	4.43			100		
Cc1cc(F)c(-c2ccc3nc(-c4cccnc4)sc3c2)cc1SCC(F)(F)F [compound 11, 6-{2-Fluoro-4-methyl-5-[(2,2,2-trifluoroethyl)sulphanyl]phenyl}-2-(pyridin-3-yl)-1,3-benzothiazole]			4.97	4.96		90	
FC(F)(F)CNc1ccc2nc(-c3cccnc3)sc2c1 [compound 13, 2-(Pyridin-3-yl)-N-(2,2,2-trifluoroethyl)-1,3-benzothiazol-6-amine]			2.47	2.36		90	
c1cnc(-c2ccn(-c3ccc4nc(-c5cccnc5)sc4c3)n2)nc1 [compound 30, 2-(Pyridin-3-yl)-6-[3-(pyrimidin-2-yl)-1H-pyrazol-1-yl]-1,3-benzothiazole]			2			90	
Cc1cccc(-c2ccc3nc(-c4cccnc4)sc3c2)c1 [compound 3, 6-(3-Methylphenyl)-2-(pyridin-3-yl)-1,3-benzothiazole]			4.41	4.27		90	
Cn1c(=O)n(C)n(-c2ccc3nc(-c4cccnc4)sc3c2)c1=O [compound 47]	1.52	1.63			100		
Cc1cc(C)c([S+]([O-])CC(F)(F)F)cc1-c1ccc2nc(-c3cccnc3)sc2c1 (centres unmarked) [compound 10, 6-{2,4-Dimethyl-5-[(2,2,2-trifluoroethyl)sulphinyl]phenyl}-2-(pyridin-3-yl)-1,3-benzothiazole]			3.4	3.45		90	
Cc1cnn(-c2ccc3nc(-c4cccnc4)sc3c2)c1 [compound 45]	2.62	2.71			90		
Clc1ccc(-c2ccc3nc(-c4cccnc4)sc3c2)cc1 [compound 8]	4.43						efficacy (beetle larvae killed) [6]: 83%
CS(=O)(=O)CCNC(=O)c1ccc2nc(-c3cccnc3)sc2c1 [compound 71, N-[2-(Methylsulphonyl)ethyl]-2-(pyridin-3-yl)-1,3-benzothiazole-6-carboxamide]				1.19		100	
O=C(NCC(F)(F)F)c1ccc2nc(-c3cccnc3)sc2c1 [compound 32, 2-(Pyridin-3-yl)-N-(2,2,2-trifluoroethyl)-1,3-benzothiazole-6-carboxamide]				1.96		100	

Now from value to compound, other results behind:

logP[a] [3]	logP[b] [4]	chromatographic logP [4]	chromatographic logP [3]	SMILES	efficacy (aphids killed) [1] [%]	pest or weed control at 500 g/ha [1] [%]	also measured
1.66	1.81			Cc1nn(-c2ccc3nc(-c4cccnc4)sc3c2)c(=O)n1C [compound 48]	90		
		4.22	4.18	Cc1cc(F)c(Nc2ccc3nc(-c4cccnc4)sc3c2)cc1SCC(F)(F)F [compound 20, N-{2-Fluoro-4-methyl-5-[(2,2,2-trifluoroethyl)sulphanyl]phenyl}-2-(pyridin-3-yl)-1,3-benzothiazol-6-amine]		90	
		1.51	1.32	C[S+]([O-])Cn1cc(-c2ccc3nc(-c4cccnc4)sc3c2)cn1 (centres unmarked) [compound 39, 6-{1-[(Methylsulphinyl)methyl]-1H-pyrazol-4-yl}-2-(pyridin-3-yl)-1,3-benzothiazole]		100	
		5.24	5.22	Cc1cc(C)c(-c2ccc3nc(-c4cccnc4)sc3c2)cc1SCC(F)(F)F [compound 9, 6-{2,4-Dimethyl-5-[(2,2,2-trifluoroethyl)sulphanyl]phenyl}-2-(pyridin-3-yl)-1,3-benzothiazole]		90	
		4.51	4.45	Cc1cc(C)c(SCC(F)(F)F)cc1Nc1ccc2nc(-c3cccnc3)sc2c1 [compound 18, N-{2,4-Dimethyl-5-[(2,2,2-trifluoroethyl)sulphanyl]phenyl}-2-(pyridin-3-yl)-1,3-benzothiazol-6-amine]		90	
	3.42			FC(F)(F)c1cnn(-c2ccc3nc(-c4cccnc4)sc3c2)c1 [compound 27]	90		
		1.84	1.79	Cn1c(=O)cnn(-c2ccc3nc(-c4cccnc4)sc3c2)c1=O [compound 56, 4-Methyl-2-[2-(pyridin-3-yl)-1,3-benzothiazol-6-yl]-1,2,4-triazine-3,5(2H,4H)-dione]		90	
1.35	1.49			Cn1cnn(-c2ccc3nc(-c4cccnc4)sc3c2)c1=S [compound 46]	90		
			1.83	CSCCNC(=O)c1ccc2nc(-c3cccnc3)sc2c1 [compound 69, N-[2-(Methylsulphanyl)ethyl]-2-(pyridin-3-yl)-1,3-benzothiazole-6-carboxamide]		90	
